From PubChem BioAssay (NCI)
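Protocol summary: plate cells (96-well), add compound at 5 concentrations, incubate 48 h, interpolate endpoints linearly. The concentration for full growth arrest is given as TGI.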

How the values were obtained:
Assay in all cases: DTP human tumour cell line panel, 48 h
HCT-15 colon = tested on: HCT-15 colon
HCC-2998 colon = tested on: HCC-2998 colon
DMS 114 small cell lung = tested on: DMS 114 small cell lung
MALME-3M melanoma = tested on: MALME-3M melanoma
OVCAR-3 ovarian = tested on: OVCAR-3 ovarian
HT29 colon = tested on: HT29 colon
DLD-1 colon = tested on: DLD-1 colon
SK-MEL-28 melanoma = tested on: SK-MEL-28 melanoma
SF-539 CNS = tested on: SF-539 CNS
UO-31 renal = tested on: UO-31 renal
LXFL 529 NSCLC = tested on: LXFL 529 NSCLC
786-0 renal = tested on: 786-0 renal
SF-268 CNS = tested on: SF-268 CNS
HCT-116 colon = tested on: HCT-116 colon
CCRF-CEM leukemia = tested on: CCRF-CEM leukemia
RXF 393 renal = tested on: RXF 393 renal
M19-MEL melanoma = tested on: M19-MEL melanoma
SK-MEL-2 melanoma = tested on: SK-MEL-2 melanoma
KM20L2 colon = tested on: KM20L2 colon
HOP-62 NSCLC = tested on: HOP-62 NSCLC
UACC-257 melanoma = tested on: UACC-257 melanoma
A498 renal = tested on: A498 renal
KM12 colon = tested on: KM12 colon
U251 CNS = tested on: U251 CNS
IGROV1 ovarian = tested on: IGROV1 ovarian
RXF-631 renal = tested on: RXF-631 renal
A549 NSCLC = tested on: A549 NSCLC
COLO 205 colon = tested on: COLO 205 colon
M14 melanoma = tested on: M14 melanoma
ACHN renal = tested on: ACHN renal
NCI-H23 lung = tested on: NCI-H23 lung
EKVX NSCLC = tested on: EKVX NSCLC
RPMI-8226 leukemia = tested on: RPMI-8226 leukemia
NCI-H460 lung = tested on: NCI-H460 lung
SNB-78 CNS = tested on: SNB-78 CNS
UACC-62 melanoma = tested on: UACC-62 melanoma
XF 498 CNS = tested on: XF 498 CNS
DMS 273 small cell lung = tested on: DMS 273 small cell lung
SK-OV-3 ovarian = tested on: SK-OV-3 ovarian
SF-295 CNS = tested on: SF-295 CNS
OVCAR-5 ovarian = tested on: OVCAR-5 ovarian
HOP-18 NSCLC = tested on: HOP-18 NSCLC
CAKI-1 renal = tested on: CAKI-1 renal
SNB-19 CNS = tested on: SNB-19 CNS
SNB-75 CNS = tested on: SNB-75 CNS
OVCAR-8 ovarian = tested on: OVCAR-8 ovarian
LOX IMVI melanoma = tested on: LOX IMVI melanoma
SN12C renal = tested on: SN12C renal
HOP-92 NSCLC = tested on: HOP-92 NSCLC
OVCAR-4 ovarian = tested on: OVCAR-4 ovarian
NCI-H522 lung = tested on: NCI-H522 lung
SK-MEL-5 melanoma = tested on: SK-MEL-5 melanoma
MOLT-4 leukemia = tested on: MOLT-4 leukemia
SW-620 colon = tested on: SW-620 colon
K-562 leukemia = tested on: K-562 leukemia
TK-10 renal = tested on: TK-10 renal
T-47D breast = tested on: T-47D breast
HL-60(TB) leukemia = tested on: HL-60(TB) leukemia
NCI-H226 lung = tested on: NCI-H226 lung
BT-549 breast = tested on: BT-549 breast
DU-145 prostate = tested on: DU-145 prostate
MDA-MB-435 = tested on: MDA-MB-435
HS 578T breast = tested on: HS 578T breast
PC-3 prostate = tested on: PC-3 prostate
SR leukemia = tested on: SR leukemia
MCF7 breast = tested on: MCF7 breast
NCI/ADR-RES ovarian = tested on: NCI/ADR-RES ovarian
MDA-N = tested on: MDA-N
MDA-MB-231 breast = tested on: MDA-MB-231 breast

SMILES: Cc1cc(NS(=O)(=O)c2ccc(Nc3c4ccccc4nc4c(C(=O)Nc5ccc(S(=O)(=O)N=C(N)N)cc5)cccc34)cc2)no1
- TGI (HCT-15 colon): > 100 µM
- TGI (HCC-2998 colon): > 100 µM
- TGI (DMS 114 small cell lung): > 100 µM
- TGI (MALME-3M melanoma): > 100 µM
- TGI (OVCAR-3 ovarian): > 100 µM
- TGI (HT29 colon): > 100 µM
- TGI (DLD-1 colon): > 100 µM
- TGI (SK-MEL-28 melanoma): > 100 µM
- TGI (SF-539 CNS): > 100 µM
- TGI (UO-31 renal): > 100 µM
- TGI (LXFL 529 NSCLC): > 100 µM
- TGI (786-0 renal): > 100 µM
- TGI (SF-268 CNS): > 100 µM
- TGI (HCT-116 colon): > 100 µM
- TGI (CCRF-CEM leukemia): > 100 µM
- TGI (RXF 393 renal): > 100 µM
- TGI (M19-MEL melanoma): > 100 µM
- TGI (SK-MEL-2 melanoma): > 100 µM
- TGI (KM20L2 colon): > 100 µM
- TGI (HOP-62 NSCLC): > 100 µM
- TGI (UACC-257 melanoma): > 100 µM
- TGI (A498 renal): > 100 µM
- TGI (KM12 colon): > 100 µM
- TGI (U251 CNS): > 100 µM
- TGI (IGROV1 ovarian): > 100 µM
- TGI (RXF-631 renal): > 100 µM
- TGI (A549 NSCLC): > 100 µM
- TGI (COLO 205 colon): > 100 µM
- TGI (M14 melanoma): > 100 µM
- TGI (ACHN renal): > 100 µM
- TGI (NCI-H23 lung): > 100 µM
- TGI (EKVX NSCLC): > 100 µM
- TGI (RPMI-8226 leukemia): > 100 µM
- TGI (NCI-H460 lung): > 100 µM
- TGI (SNB-78 CNS): > 100 µM
- TGI (UACC-62 melanoma): > 100 µM
- TGI (XF 498 CNS): > 100 µM
- TGI (DMS 273 small cell lung): > 100 µM
- TGI (SK-OV-3 ovarian): > 100 µM
- TGI (SF-295 CNS): > 100 µM
- TGI (OVCAR-5 ovarian): > 100 µM
- TGI (HOP-18 NSCLC): > 100 µM
- TGI (CAKI-1 renal): > 100 µM
- TGI (SNB-19 CNS): > 100 µM
- TGI (SNB-75 CNS): > 100 µM
- TGI (OVCAR-8 ovarian): > 100 µM
- TGI (LOX IMVI melanoma): > 100 µM
- TGI (SN12C renal): > 100 µM
- TGI (HOP-92 NSCLC): > 100 µM
- TGI (OVCAR-4 ovarian): > 100 µM
- TGI (NCI-H522 lung): > 100 µM
- TGI (SK-MEL-5 melanoma): > 100 µM
- TGI (MOLT-4 leukemia): > 100 µM
- TGI (SW-620 colon): > 100 µM
- TGI (K-562 leukemia): > 100 µM
- TGI (TK-10 renal): > 100 µM

SMILES: O=C1c2ccccc2C(=O)c2c(NCCCNCCO)ccc(NCCCNCCO)c21
- TGI (HCT-15 colon): 29.8 µM
- TGI (HCC-2998 colon): 16.7 µM
- TGI (DMS 114 small cell lung): 25.2 µM
- TGI (MALME-3M melanoma): 27.9 µM
- TGI (OVCAR-3 ovarian): 27.3 µM
- TGI (HT29 colon): 15.9 µM
- TGI (SK-MEL-28 melanoma): 16.8 µM
- TGI (SF-539 CNS): 15.3 µM
- TGI (UO-31 renal): 28.4 µM
- TGI (T-47D breast): 68.2 µM
- TGI (LXFL 529 NSCLC): 16.1 µM
- TGI (786-0 renal): 16.6 µM
- TGI (SF-268 CNS): 17.9 µM
- TGI (HCT-116 colon): 16.8 µM
- TGI (HL-60(TB) leukemia): 33.8 µM
- TGI (CCRF-CEM leukemia): 23.1 µM
- TGI (RXF 393 renal): 18.2 µM
- TGI (M19-MEL melanoma): 18.6 µM
- TGI (SK-MEL-2 melanoma): 17.7 µM
- TGI (KM20L2 colon): 19.9 µM
- TGI (NCI-H226 lung): 12.3 µM
- TGI (HOP-62 NSCLC): 23.8 µM
- TGI (UACC-257 melanoma): 46.8 µM
- TGI (A498 renal): 31.1 µM
- TGI (KM12 colon): 18.4 µM
- TGI (BT-549 breast): 30.7 µM
- TGI (U251 CNS): 23.3 µM
- TGI (IGROV1 ovarian): > 49 µM
- TGI (RXF-631 renal): > 100 µM
- TGI (A549 NSCLC): 47.3 µM
- TGI (DU-145 prostate): 35.8 µM
- TGI (COLO 205 colon): 18.9 µM
- TGI (M14 melanoma): 25.5 µM
- TGI (MDA-MB-435): 25.7 µM
- TGI (ACHN renal): 25.5 µM
- TGI (NCI-H23 lung): 23.9 µM
- TGI (HS 578T breast): 34.4 µM
- TGI (EKVX NSCLC): 26.3 µM
- TGI (RPMI-8226 leukemia): 53.1 µM
- TGI (NCI-H460 lung): 15.5 µM
- TGI (SNB-78 CNS): 30.8 µM
- TGI (UACC-62 melanoma): 24.6 µM
- TGI (XF 498 CNS): 27 µM
- TGI (PC-3 prostate): 22.6 µM
- TGI (SK-OV-3 ovarian): 58.7 µM
- TGI (SR leukemia): 20.8 µM
- TGI (SF-295 CNS): 31.9 µM
- TGI (MCF7 breast): 10.8 µM
- TGI (OVCAR-5 ovarian): 44.7 µM
- TGI (HOP-18 NSCLC): 67.2 µM
- TGI (CAKI-1 renal): 98.2 µM
- TGI (NCI/ADR-RES ovarian): > 100 µM
- TGI (MDA-N): 20 µM
- TGI (SNB-19 CNS): 20.9 µM
- TGI (SNB-75 CNS): 23.3 µM
- TGI (OVCAR-8 ovarian): 31 µM
- TGI (MDA-MB-231 breast): 24.2 µM
- TGI (LOX IMVI melanoma): 14.9 µM
- TGI (SN12C renal): 14.4 µM
- TGI (HOP-92 NSCLC): 26.2 µM
- TGI (OVCAR-4 ovarian): 26.9 µM
- TGI (NCI-H522 lung): 15.5 µM
- TGI (SK-MEL-5 melanoma): 28.7 µM
- TGI (MOLT-4 leukemia): 18.5 µM
- TGI (SW-620 colon): 17.6 µM
- TGI (K-562 leukemia): 13.9 µM
- TGI (TK-10 renal): 40.6 µM

SMILES: CCC1C(C)c2c([nH]c3ccccc23)C2C(=O)N(c3ccccc3)C(=O)C21 (stereo not drawn)
- TGI (HCT-15 colon): 31.2 µM
- TGI (HCC-2998 colon): 28.9 µM
- TGI (DMS 114 small cell lung): 29.7 µM
- TGI (MALME-3M melanoma): 30.4 µM
- TGI (OVCAR-3 ovarian): 27.1 µM
- TGI (HT29 colon): 28.2 µM
- TGI (DLD-1 colon): 34.9 µM
- TGI (SK-MEL-28 melanoma): 33.4 µM
- TGI (SF-539 CNS): 34.5 µM
- TGI (LXFL 529 NSCLC): 96.2 µM
- TGI (786-0 renal): 34.5 µM
- TGI (SF-268 CNS): 62.5 µM
- TGI (HL-60(TB) leukemia): 33.9 µM
- TGI (CCRF-CEM leukemia): 71.9 µM
- TGI (RXF 393 renal): 26 µM
- TGI (M19-MEL melanoma): 29.6 µM
- TGI (KM12 colon): 32.1 µM
- TGI (U251 CNS): 29.3 µM
- TGI (IGROV1 ovarian): 22.3 µM
- TGI (RXF-631 renal): 26.3 µM
- TGI (A549 NSCLC): 48.5 µM
- TGI (COLO 205 colon): 30.7 µM
- TGI (M14 melanoma): 33.4 µM
- TGI (ACHN renal): 66.5 µM
- TGI (NCI-H23 lung): 41.8 µM
- TGI (EKVX NSCLC): 38.3 µM
- TGI (RPMI-8226 leukemia): 40.9 µM
- TGI (NCI-H460 lung): 28.2 µM
- TGI (SNB-78 CNS): 67.6 µM
- TGI (UACC-62 melanoma): 21.9 µM
- TGI (XF 498 CNS): 36 µM
- TGI (DMS 273 small cell lung): 37.4 µM
- TGI (SK-OV-3 ovarian): 44.1 µM
- TGI (SR leukemia): 47.3 µM
- TGI (SF-295 CNS): 32.3 µM
- TGI (SNB-75 CNS): 39.4 µM
- TGI (OVCAR-8 ovarian): 28.7 µM
- TGI (LOX IMVI melanoma): 31.8 µM
- TGI (SN12C renal): 26.3 µM
- TGI (OVCAR-4 ovarian): 38 µM
- TGI (SK-MEL-5 melanoma): 28.8 µM
- TGI (MOLT-4 leukemia): 49.3 µM
- TGI (SW-620 colon): 35.9 µM
- TGI (K-562 leukemia): 44.3 µM
- TGI (TK-10 renal): 89.2 µM
